The text below walks through data of patent US9315539B2 (YALE UNIVERSITY, priority 2002, dated 2016).

“Also recorded” adds a separate entry of the source.

The subject of test [1] is Ishikawa cell. Put plainly: Agonist/antagonist character of the analogs (Tables 1 and 2). The test is classed as cell-based. The settings on record: estrogen agonism or antagonism, assay not named in the tables. The source says:
From the estrogen competition assay, we expected that the methyl and ethyl esters, E11-2,1 and E11-2,2 would have relatively high activity in the estrogen potency assay, induction of alkaline phosphatase in Ishikawa cells. However, the results were quite unexpected (see FIG. 5, attached). […] We had never previously seen this disparity between estrogen receptor binding and biological activity. It occurred to us that we were observing the results that would obtained with a SERM and that E11-2,2 was in fact an antiestrogen. Consequently, we repeated the Ishikawa assay as an antiestrogenic assay (the assay is run in the presence of specified amounts of estradiol). […] We continued our synthesis of various analogs in order to define the chemical characteristics that lead to antiestrogenic effects. […] In this regard, several compounds are described with a 17α-ethynyl group in order to protect the C-17 hydroxyl from biological oxidation.

The target in another test is T1, estrogen receptor (Homo sapiens, UniProt P03372).
T1 sequence (P03372 1-595): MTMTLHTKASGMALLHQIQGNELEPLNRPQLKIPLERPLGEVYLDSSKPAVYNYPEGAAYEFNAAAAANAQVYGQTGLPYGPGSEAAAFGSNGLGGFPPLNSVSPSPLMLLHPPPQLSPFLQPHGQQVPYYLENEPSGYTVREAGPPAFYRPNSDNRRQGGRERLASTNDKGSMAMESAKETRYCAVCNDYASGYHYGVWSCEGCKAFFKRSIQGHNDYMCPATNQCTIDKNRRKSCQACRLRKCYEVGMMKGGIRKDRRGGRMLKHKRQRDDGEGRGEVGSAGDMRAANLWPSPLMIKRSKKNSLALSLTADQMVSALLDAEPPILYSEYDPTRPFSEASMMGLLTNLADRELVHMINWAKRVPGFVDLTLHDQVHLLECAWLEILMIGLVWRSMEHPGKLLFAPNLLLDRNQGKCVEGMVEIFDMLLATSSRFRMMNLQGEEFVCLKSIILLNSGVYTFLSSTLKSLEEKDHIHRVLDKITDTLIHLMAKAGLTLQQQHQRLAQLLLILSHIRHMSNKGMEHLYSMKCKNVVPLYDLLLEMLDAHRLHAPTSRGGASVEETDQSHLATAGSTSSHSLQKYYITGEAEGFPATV
Description: Estrogen receptor competition assay (relative binding affinity). The settings on record: estradiol (E2) = 100%.

A further test concerns Ishikawa cells. Description: Ishikawa estrogenic potency assay, induction of alkaline phosphatase. The test is classed as cell-based. The note with it: for relative stimulatory activity (RSA): induction of alkaline phosphatase, estradiol set at 100%; for estrogenic activity (in words): induction of alkaline phosphatase in Ishikawa cells. The source says:
(§1) Ishikawa Estrogenic Potency Assay From the estrogen competition assay, we expected that the methyl and ethyl esters, E11-2,1 and E11-2,2 would have relatively high activity in the estrogen potency assay, induction of alkaline phosphatase in Ishikawa cells. However, the results were quite unexpected (see FIG. 5, attached). […] We had never previously seen this disparity between estrogen receptor binding and biological activity. It occurred to us that we were observing the results that would obtained with a SERM and that E11-2,2 was in fact an antiestrogen. Consequently, we repeated the Ishikawa assay as an antiestrogenic assay (the assay is run in the presence of specified amounts of estradiol).

Test [2] relates to Ishikawa cell. Put plainly: Antiestrogen Ishikawa cell assay (run in the presence of estradiol). The test is classed as cell-based. The settings on record: for antiestrogenic activity (in words): inhibition of estradiol-stimulated alkaline phosphatase.
Description: as §1, with “From” for “Ishikawa Estrogenic Potency Assay From”

In test [3] the test system is uterotrophic action of estradiol. Description: In vivo uterotrophic assay, antiestrogenic action. Details: species or system rat. The note with it: immature female rats; for effect on uterotrophic action of estradiol: 20 ng estradiol. The protocol:
In Vivo Uterotropic Activity
The analogs were administered concurrently in the same oil.

For `COCCC1CC2(C)C(O)CCC2C2CCc3cc(O)ccc3C12` (centres unmarked) [E11-2,1ether], the “agonist / antagonist character” value in the test with Ishikawa cell [1] is given as “agonist/slight antagonist”. Turning to `COC(=O)C[C@H]1C[C@]2(C)[C@@H](O)CC[C@H]2[C@@H]2CCc3cc(O)ccc3[C@@H]12` [E11-2,1], the “relative binding affinity (RBA)” value on estrogen receptor is reported as 24%. Further, the “relative stimulatory activity (RSA)” value in the test with Ishikawa cells is 16%. For the same compound, the “antiestrogenic activity (in words)” value with Ishikawa cell [2] is given as “neither E11-2,1 nor E11-2,0 showed any antiestrogenic activity”. Also, the “agonist / antagonist character” value with Ishikawa cell [1] was “estrogen”. In the case of `CCCOC(=O)C[C@H]1C[C@]2(C)[C@@H](O)CC[C@H]2[C@@H]2CCc3cc(O)ccc3[C@@H]12` [E11-2,3], the “agonist / antagonist character” value in the test on Ishikawa cell [1] is listed as “strong antagonist”. What is called Ki is the equilibrium dissociation constant of an inhibitor or competing ligand from its target. As to `CCOC(=O)C[C@H]1C[C@]2(C)[C@@H](O)CC[C@H]2[C@@H]2CCc3cc(O)ccc3[C@@H]12` [E11-2,2], the “relative binding affinity (RBA)” value on estrogen receptor is recorded as 45%. In addition, the “estrogenic activity (in words)” value in the test with Ishikawa cells was “almost inactive”. Also, the “antiestrogenic activity (in words)” value in the test on Ishikawa cell [2] is “inhibited the estrogenic stimulation of alkaline phosphatase in the Ishikawa cell, with very high potency”. Further, in the test with Ishikawa cell [2] (inhibition of estrogenic stimulation of alkaline phosphatase, several assays), the Ki is 1 to 2 nM. The “effect on uterotrophic action of estradiol” value in test [3] (3 μg analog) is “partially active”; in test [3] (10 μg analog) it was “completely abolished the effect of 20 ng estradiol”. Further, the “effect on uterotrophic action of estradiol (uterine weight)” value in test [3] (100 μg analog, 50 ng estradiol, FIG. 7) was “inhibiting the action of 50 ng of estradiol”. The “agonist / antagonist character” value in the test on Ishikawa cell [1] was “antiestrogen; also recorded: strong antagonist”. For `C[C@]12C[C@H](CC(=O)O)[C@@H]3c4ccc(O)cc4CC[C@H]3[C@@H]1CC[C@@H]2O` [E11-2,0], the “relative binding affinity (RBA)” value on estrogen receptor is recorded as 0.3%. Besides, the “estrogenic activity (in words)” value in the test with Ishikawa cells is listed as “more active than E11-2,2”. For the same compound, the “antiestrogenic activity (in words)” value with Ishikawa cell [2] was “neither E11-2,1 nor E11-2,0 showed any antiestrogenic activity”. With `CCCOCCC1CC2(C)C(O)CCC2C2CCc3cc(O)ccc3C12` (centres unmarked) [E11-2,3ether], in the test on Ishikawa cell [1], the “agonist / antagonist character” value is recorded as “strong antagonist”. The same measure, in the same setting: as for `CC(C)(C)COC(=O)C[C@H]1C[C@]2(C)[C@@H](O)CC[C@H]2[C@@H]2CCc3cc(O)ccc3[C@@H]12` [E11-2,5neo], the entry is “antagonist”; as for `CC(C)(C)OCCCC1CC2(C)C(O)CCC2C2CCc3cc(O)ccc3C12` (centres unmarked) [E11-3,tBu ether], “extremely strong antagonists; also recorded: very strong antagonist”. Consider `CC(=O)OCCC[C@H]1C[C@]2(C)[C@@H](O)CC[C@H]2[C@@H]2CCc3cc(O)ccc3[C@@H]12` [E11-3,2Rev], for which the “agonist / antagonist character” value in the test on Ishikawa cell [1] is recorded as “antagonist”. For `CCCC(=O)C[C@H]1C[C@]2(C)[C@@H](O)CC[C@H]2[C@@H]2CCc3cc(O)ccc3[C@@H]12` [E11-2K3], the “effect on uterotrophic response of estradiol” value in test [3] (30 μg analog) is “completely abolished the uterotrophic response of estradiol”. Besides, the “agonist / antagonist character” value with Ishikawa cell [1] was “antagonist”. Consider `CCCCOC(=O)C[C@H]1C[C@]2(C)[C@@H](O)CC[C@H]2[C@@H]2CCc3cc(O)ccc3[C@@H]12` [E11-2,4], for which, in the test with Ishikawa cell [1], the “agonist / antagonist character” value was “strong antagonist”.

As to `CC(C)OCCC1CC2(C)C(O)CCC2C2CCc3cc(O)ccc3C12` (centres unmarked) [E11-2,iPr ether], the “agonist / antagonist character” value in the test with Ishikawa cell [1] is given as “strong antagonist”.

On to `CC(=O)OCC[C@H]1C[C@]2(C)[C@@H](O)CC[C@H]2[C@@H]2CCc3cc(O)ccc3[C@@H]12` [E11-2,2Rev], for which the “agonist / antagonist character” value with Ishikawa cell [1] is “agonist”.

As for `CC(=O)OC[C@H]1C[C@]2(C)[C@@H](O)CC[C@H]2[C@@H]2CCc3cc(O)ccc3[C@@H]12` [E11-1,2Rev], the “agonist / antagonist character” value with Ishikawa cell [1] is given as “agonist”. The same measure, in the same setting: as for `CCCOCC1CC2(C)C(O)CCC2C2CCc3cc(O)ccc3C12` (centres unmarked) [E11-1,3ether], the entry is “strong antagonist”. Regarding `CC(C)OCCCC1CC2(C)C(O)CCC2C2CCc3cc(O)ccc3C12` (centres unmarked) [E11-3,iPr ether], in the test on Ishikawa cell [1], the “agonist / antagonist character” value is on record as “strong antagonist”. Still for that read-out and setting: next, `C#CC1(O)CCC2C3CCc4cc(O)ccc4C3C(CCCOC(C)(C)C)CC21C` (stereo not drawn) [17α-ethynyl-E11-3,tBu ether]: “very strong antagonist”; `CC12CC(CCCOCCF)C3c4ccc(O)cc4CCC3C1CCC2O` (centres unmarked) [E11-3,2F1 ether]: “strong antagonist”. For the compound `C#CC1(O)CCC2C3CCc4cc(O)ccc4C3C(CCCOC(C)C)CC21C` (stereo not drawn) [17α-ethynyl-E11-3,iPr ether], in the test on Ishikawa cell [1], the “agonist / antagonist character” value is given as “very strong antagonist”. The same measure, in the same setting: next, `CC(C)(C)C(=O)OCCC[C@H]1C[C@]2(C)[C@@H](O)CC[C@H]2[C@@H]2CCc3cc(O)ccc3[C@@H]12` [E11-3,piv Rev]: “antagonist”. The same measure, in the same setting: next, `CC(C)OC(=O)C[C@H]1C[C@]2(C)[C@@H](O)CC[C@H]2[C@@H]2CCc3cc(O)ccc3[C@@H]12` [E11-2,3i]: “strong antagonist”; `CC(C)(C)OCCC1CC2(C)C(O)CCC2C2CCc3cc(O)ccc3C12` (centres unmarked) [E11-2,tBu ether]: “very weak antagonist”. On the same count and under the same terms, next, `C[C@]12C[C@H](CCOC3CCCC3)[C@@H]3c4ccc(O)cc4CC[C@H]3[C@@H]1CC[C@@H]2O` [E11-2,cyclo-Pent ether]: “extremely strong antagonists; also recorded: very strong antagonist”. Turning to `CCOCCC1CC2(C)C(O)CCC2C2CCc3cc(O)ccc3C12` (centres unmarked) [E11-2,2ether], the “inhibition of the effect of estradiol” value in test [3] (30 μg analog) is “about 50%”. The “agonist / antagonist character” value in the test on Ishikawa cell [1] was “strong antagonist”.

Regarding `CCOCCCC1CC2(C)C(O)CCC2C2CCc3cc(O)ccc3C12` (centres unmarked) [E11-3,2 ether], in the test on Ishikawa cell [1], the “agonist / antagonist character” value was “strong antagonist”.

As for `CCOCC1CC2(C)C(O)CCC2C2CCc3cc(O)ccc3C12` (centres unmarked) [E11-1,2ether], in the test on Ishikawa cell [1], the “agonist / antagonist character” value is “agonist”. For `CCC(=O)C[C@H]1C[C@]2(C)[C@@H](O)CC[C@H]2[C@@H]2CCc3cc(O)ccc3[C@@H]12` [E11-2K2], the “agonist / antagonist character” value in the test on Ishikawa cell [1] is listed as “weak agonist”. For `CCOC(=S)C[C@H]1C[C@]2(C)[C@@H](O)CC[C@H]2[C@@H]2CCc3cc(O)ccc3[C@@H]12` [E11-2S2], the “agonist / antagonist character” value was “antagonist” with Ishikawa cell [1] and “strong antagonist” in the test on Ishikawa cell [1] (listed as E11-2S,2). As for `COCCCC1CC2(C)C(O)CCC2C2CCc3cc(O)ccc3C12` (centres unmarked) [E11-3,1 ether], the “agonist / antagonist character” value in the test on Ishikawa cell [1] was “antagonist”.

As to `COC(=O)CC[C@H]1C[C@]2(C)[C@@H](O)CC[C@H]2[C@@H]2CCc3cc(O)ccc3[C@@H]12` [E11-3,1], the “agonist / antagonist character” value in the test with Ishikawa cell [1] is reported as “antagonist”.

Turning to `C[C@]12C[C@H](CCOC3CC3)[C@@H]3c4ccc(O)cc4CC[C@H]3[C@@H]1CC[C@@H]2O` [E11-2,cyclo-Pr ether], the “agonist / antagonist character” value with Ishikawa cell [1] is “strong antagonist”. Consider `C[C@]12CC[C@@H]3c4ccc(O)cc4CC[C@H]3[C@@H]1CCC2=O` [estrone, reference compound], for which the “relative stimulatory activity (RSA)” value in the test on Ishikawa cells is given as 4%.
